Ends that are not written are not given here.
Tested on: HUVEC
Experiment: HUVEC growth inhibition test (WST-1 assay)
Settings: 25 ng/mL VEGF, 24 hours

## YT1-Cem: non-VEGF-binding helix-loop-helix peptide YT1-Cys (SEQ ID NO: 18) reacted with CemCH2-S-TNB; control complex (CAELAALEAELAALEGGGGGGGKLAALKAKLAALKA; also: Cem conjugated via the Cys (CemCH2-S-TNB reaction))
  cell growth inhibition: did not inhibit cell growth

From patent US20180264124A1, “DRUG COMPLEX” (Shimadzu Corporation, priority 2015, published 2018)
